Like-named read-outs stand apart in the source and are kept apart here.
Columns and labels:
[1] = Solubility evaluation in toluene; format: physicochemical
Experimental: Solubility evaluation were performed at 25° C. using toluene as solvent.

[2] = Glass transition temperature by DSC; format: physicochemical
Experimental: The glass transition temperatures Tg were measured using a TA instruments 2920 DSC equipment and data evaluation were done with the TA Instruments Universal Analysis 2000 software.

Toluene solubility S at 25° C. ([1]; listed as Ir(2-PhQ)3)	Tg [2]	Molecule	Toluene solubility S at 25° C. [1]
< 0.02 wt %		[Ir+3].[c-]1ccccc1-c1ccc2ccccc2n1.[c-]1ccccc1-c1ccc2ccccc2n1.[c-]1ccccc1-c1ccc2ccccc2n1 [[Ir(2-PhQ)3], reference compound]	S < 0.02 wt %
		[Ir(2-PhQ)2(DMC2)]	S > 0.25 wt %
	54 °C	[Ir(n-hexPhQ)3] [reference compound]	

Reference: US9159937B2, “Heteroleptic light-emitting complexes” (SOLVAY SA, priority 2011, dated 2015)
